Experimental data as given in publication PMC3961306, “Comparison of the Cancer Gene Targeting and Biochemical Selectivities of All Targeted Kinase Inhibitors Approved for Clinical Use” (PLoS ONE, 2014).

Columns and labels:
Experiment in all cases: Kinase profiling in a biochemical assay panel (mobility shift assays and ELISA), %-inhibition at 1 μM; selectivity entropy
[1] = molecular target: panel of more than 300 wild-type and mutant kinases (313 kinase panel) (Homo sapiens, UniProt Q9H1R3)
[2] = molecular target: T1, panel of more than 300 wild-type and mutant kinases (313 kinase panel) (Homo sapiens, UniProt Q99759)
T1 sequence (Q99759 1-626): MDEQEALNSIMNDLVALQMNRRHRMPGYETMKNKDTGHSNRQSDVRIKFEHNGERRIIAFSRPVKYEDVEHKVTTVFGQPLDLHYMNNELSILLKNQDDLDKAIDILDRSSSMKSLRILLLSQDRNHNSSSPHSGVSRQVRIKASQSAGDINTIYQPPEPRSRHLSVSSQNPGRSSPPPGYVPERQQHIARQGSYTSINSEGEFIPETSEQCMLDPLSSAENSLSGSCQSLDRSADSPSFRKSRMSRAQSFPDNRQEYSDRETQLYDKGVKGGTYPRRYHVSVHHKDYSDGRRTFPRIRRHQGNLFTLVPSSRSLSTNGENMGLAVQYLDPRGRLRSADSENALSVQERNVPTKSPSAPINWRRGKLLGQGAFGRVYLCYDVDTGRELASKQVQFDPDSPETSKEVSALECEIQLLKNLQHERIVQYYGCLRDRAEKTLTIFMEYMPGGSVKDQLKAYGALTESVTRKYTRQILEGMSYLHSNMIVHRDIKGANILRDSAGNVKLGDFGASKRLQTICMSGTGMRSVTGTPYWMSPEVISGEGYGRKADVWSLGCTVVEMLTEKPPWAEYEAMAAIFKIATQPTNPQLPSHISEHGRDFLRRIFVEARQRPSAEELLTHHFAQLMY

[3] = molecular target: panel of more than 300 wild-type and mutant kinases (313 kinase panel) (Homo sapiens, UniProt P36507)
[4] = molecular target: panel of more than 300 wild-type and mutant kinases (313 kinase panel) (Homo sapiens, UniProt Q16816)
[5] = molecular target: panel of more than 300 wild-type and mutant kinases (313 kinase panel) (Homo sapiens, UniProt P41240); conditions: kinase CSK; compound at 1 μM
[6] = molecular target: panel of more than 300 wild-type and mutant kinases (313 kinase panel) (Homo sapiens, UniProt Q9P286)
[7] = molecular target: T2, panel of more than 300 wild-type and mutant kinases (313 kinase panel) (Homo sapiens, UniProt P36888); conditions: kinase FLT3; compound at 1 μM
T2 sequence (P36888 27-993): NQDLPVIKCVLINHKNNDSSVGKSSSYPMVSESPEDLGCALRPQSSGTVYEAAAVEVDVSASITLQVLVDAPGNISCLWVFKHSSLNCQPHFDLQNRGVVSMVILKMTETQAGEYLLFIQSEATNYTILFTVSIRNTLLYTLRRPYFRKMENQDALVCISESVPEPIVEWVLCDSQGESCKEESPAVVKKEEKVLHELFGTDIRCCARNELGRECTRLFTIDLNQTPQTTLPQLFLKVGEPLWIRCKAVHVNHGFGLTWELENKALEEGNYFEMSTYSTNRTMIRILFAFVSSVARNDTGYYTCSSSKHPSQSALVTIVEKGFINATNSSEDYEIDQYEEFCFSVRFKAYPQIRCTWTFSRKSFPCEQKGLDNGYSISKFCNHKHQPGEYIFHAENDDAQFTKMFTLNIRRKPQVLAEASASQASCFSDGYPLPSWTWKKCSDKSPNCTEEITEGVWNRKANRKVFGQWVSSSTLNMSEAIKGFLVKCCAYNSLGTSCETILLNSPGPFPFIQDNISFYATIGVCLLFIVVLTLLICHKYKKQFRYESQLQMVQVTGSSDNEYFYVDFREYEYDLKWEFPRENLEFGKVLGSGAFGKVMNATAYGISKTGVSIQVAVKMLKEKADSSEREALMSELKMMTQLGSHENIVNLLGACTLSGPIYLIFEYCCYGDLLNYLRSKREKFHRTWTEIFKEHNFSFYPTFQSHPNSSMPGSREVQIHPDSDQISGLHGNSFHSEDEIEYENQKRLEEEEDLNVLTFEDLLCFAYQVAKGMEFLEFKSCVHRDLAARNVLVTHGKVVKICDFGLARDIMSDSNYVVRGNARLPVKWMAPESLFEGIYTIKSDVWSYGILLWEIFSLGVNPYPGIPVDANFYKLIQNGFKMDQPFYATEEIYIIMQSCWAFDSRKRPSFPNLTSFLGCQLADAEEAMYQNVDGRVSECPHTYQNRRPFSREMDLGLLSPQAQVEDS

[8] = molecular target: panel of more than 300 wild-type and mutant kinases (313 kinase panel) (Homo sapiens, UniProt Q13177)
[9] = molecular target: panel of more than 300 wild-type and mutant kinases (313 kinase panel) (Homo sapiens, UniProt O94804)
[10] = molecular target: panel of more than 300 wild-type and mutant kinases (313 kinase panel) (Homo sapiens, UniProt P22607, K650E)
[11] = kinase MAP3K3, compound at 1 μM
[12] = kinase MAP2K2, compound at 1 μM
[13] = kinase FGFR3(K650E), compound at 1 μM

panel of more than 300 wild-type and mutant kinases (313 kinase panel) (Homo sapiens, UniProt Q9P286), sequence (Q9P286 whole entry, change not shown): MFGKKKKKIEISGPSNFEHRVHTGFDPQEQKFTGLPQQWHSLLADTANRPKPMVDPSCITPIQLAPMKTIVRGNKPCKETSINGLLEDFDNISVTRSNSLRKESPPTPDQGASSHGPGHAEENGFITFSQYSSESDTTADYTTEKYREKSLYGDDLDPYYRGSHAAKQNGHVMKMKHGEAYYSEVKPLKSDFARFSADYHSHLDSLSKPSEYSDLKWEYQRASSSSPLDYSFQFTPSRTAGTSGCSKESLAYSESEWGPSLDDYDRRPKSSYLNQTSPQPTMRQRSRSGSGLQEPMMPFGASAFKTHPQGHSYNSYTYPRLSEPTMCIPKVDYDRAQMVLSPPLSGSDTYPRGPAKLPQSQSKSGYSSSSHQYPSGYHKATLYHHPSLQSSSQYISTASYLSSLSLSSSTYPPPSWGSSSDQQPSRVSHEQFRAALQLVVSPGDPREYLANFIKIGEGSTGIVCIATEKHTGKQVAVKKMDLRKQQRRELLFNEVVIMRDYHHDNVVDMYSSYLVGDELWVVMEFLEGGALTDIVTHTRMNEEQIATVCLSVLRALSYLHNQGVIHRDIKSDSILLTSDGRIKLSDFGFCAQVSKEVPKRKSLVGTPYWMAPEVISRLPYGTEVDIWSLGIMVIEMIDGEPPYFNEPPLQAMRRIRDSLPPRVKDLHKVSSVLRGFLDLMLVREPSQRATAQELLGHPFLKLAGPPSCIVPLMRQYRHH
panel of more than 300 wild-type and mutant kinases (313 kinase panel) (Homo sapiens, UniProt P22607, K650E), sequence (P22607 23-806 K650E): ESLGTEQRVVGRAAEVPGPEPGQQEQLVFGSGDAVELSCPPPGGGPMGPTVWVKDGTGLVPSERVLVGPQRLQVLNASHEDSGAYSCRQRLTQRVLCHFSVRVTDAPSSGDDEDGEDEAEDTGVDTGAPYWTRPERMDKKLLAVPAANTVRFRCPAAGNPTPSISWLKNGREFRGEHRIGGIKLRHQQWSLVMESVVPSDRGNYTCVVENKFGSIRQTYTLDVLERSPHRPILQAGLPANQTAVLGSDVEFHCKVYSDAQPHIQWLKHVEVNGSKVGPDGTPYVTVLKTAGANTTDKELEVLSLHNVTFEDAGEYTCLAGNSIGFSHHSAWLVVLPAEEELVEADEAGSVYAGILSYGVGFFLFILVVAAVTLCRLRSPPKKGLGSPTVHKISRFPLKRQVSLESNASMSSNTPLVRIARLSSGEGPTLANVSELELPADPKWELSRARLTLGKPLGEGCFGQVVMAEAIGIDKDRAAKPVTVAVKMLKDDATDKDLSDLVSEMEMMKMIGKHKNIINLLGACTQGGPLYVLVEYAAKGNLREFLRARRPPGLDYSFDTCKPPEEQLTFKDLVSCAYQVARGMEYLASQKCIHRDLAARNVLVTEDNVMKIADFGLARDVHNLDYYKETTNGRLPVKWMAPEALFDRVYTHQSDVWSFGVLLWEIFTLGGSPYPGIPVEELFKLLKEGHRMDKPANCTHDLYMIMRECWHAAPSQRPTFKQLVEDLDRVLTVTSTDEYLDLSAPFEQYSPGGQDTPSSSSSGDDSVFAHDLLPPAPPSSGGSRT
panel of more than 300 wild-type and mutant kinases (313 kinase panel) (Homo sapiens, UniProt P41240), sequence (P41240 whole entry, change not shown): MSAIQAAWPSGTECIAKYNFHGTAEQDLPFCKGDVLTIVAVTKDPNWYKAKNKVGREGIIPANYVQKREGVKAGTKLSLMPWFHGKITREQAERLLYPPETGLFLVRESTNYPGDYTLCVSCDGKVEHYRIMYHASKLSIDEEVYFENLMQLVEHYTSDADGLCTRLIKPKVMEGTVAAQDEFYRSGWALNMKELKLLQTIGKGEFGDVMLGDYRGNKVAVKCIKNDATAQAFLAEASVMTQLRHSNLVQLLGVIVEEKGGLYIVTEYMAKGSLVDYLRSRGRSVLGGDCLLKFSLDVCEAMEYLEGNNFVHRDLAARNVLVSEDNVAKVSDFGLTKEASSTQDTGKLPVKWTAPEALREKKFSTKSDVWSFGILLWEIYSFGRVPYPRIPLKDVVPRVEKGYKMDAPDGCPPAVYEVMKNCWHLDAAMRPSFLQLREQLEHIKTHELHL
panel of more than 300 wild-type and mutant kinases (313 kinase panel) (Homo sapiens, UniProt Q16816), sequence (Q16816 whole entry, change not shown): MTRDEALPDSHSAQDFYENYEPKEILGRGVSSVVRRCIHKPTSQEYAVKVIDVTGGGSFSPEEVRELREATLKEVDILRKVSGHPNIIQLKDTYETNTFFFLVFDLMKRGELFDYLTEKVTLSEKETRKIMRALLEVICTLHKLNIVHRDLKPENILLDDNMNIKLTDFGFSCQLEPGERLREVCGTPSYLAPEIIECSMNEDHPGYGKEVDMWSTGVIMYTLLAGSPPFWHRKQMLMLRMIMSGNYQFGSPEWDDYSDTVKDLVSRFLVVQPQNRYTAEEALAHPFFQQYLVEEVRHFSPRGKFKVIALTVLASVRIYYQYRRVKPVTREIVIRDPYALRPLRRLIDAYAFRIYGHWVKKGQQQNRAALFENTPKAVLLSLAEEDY
panel of more than 300 wild-type and mutant kinases (313 kinase panel) (Homo sapiens, UniProt O94804), sequence (O94804 whole entry, stated change not applied): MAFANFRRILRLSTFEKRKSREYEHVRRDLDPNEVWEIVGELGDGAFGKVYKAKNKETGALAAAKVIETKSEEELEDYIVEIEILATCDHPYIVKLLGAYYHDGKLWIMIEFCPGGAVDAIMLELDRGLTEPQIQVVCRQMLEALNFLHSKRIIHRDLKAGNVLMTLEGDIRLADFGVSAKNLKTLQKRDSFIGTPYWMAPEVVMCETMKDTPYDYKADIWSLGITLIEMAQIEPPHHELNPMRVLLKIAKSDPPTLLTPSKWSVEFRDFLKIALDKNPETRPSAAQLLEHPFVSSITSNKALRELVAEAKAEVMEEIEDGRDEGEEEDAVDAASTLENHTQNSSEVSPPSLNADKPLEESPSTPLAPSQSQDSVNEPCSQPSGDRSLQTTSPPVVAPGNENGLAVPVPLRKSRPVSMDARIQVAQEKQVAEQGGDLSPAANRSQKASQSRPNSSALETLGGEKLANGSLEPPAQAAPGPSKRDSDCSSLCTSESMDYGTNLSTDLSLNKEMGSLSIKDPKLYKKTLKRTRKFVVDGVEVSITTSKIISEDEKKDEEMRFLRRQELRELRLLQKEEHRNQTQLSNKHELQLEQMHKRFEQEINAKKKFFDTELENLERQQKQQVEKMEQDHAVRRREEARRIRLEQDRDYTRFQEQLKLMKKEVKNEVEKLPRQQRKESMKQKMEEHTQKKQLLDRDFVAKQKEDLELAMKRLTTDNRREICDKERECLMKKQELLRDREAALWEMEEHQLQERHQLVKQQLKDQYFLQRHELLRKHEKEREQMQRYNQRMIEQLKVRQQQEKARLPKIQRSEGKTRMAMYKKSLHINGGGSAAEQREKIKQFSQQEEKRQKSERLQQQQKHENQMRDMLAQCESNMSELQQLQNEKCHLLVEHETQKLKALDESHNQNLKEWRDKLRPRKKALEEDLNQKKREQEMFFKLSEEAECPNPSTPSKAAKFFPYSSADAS

| SMILES | %-inhibition of skMLCK ([1]; kinase skMLCK, 1 μM) [%] | %-inhibition of MAP3K3 [2, 11] [%] | %-inhibition of MAP2K2 ([3]; 1 µM) [%] | %-inhibition of PHKG1 ([4]; kinase PHKG1, 1 μM) [%] | %-inhibition of CSK [5] [%] | %-inhibition of PAK5 ([6]; kinase PAK5, 1 μM) [%] | %-inhibition of FLT3 [7] [%] | %-inhibition of PAK2 ([8]; kinase PAK2, 1 μM) [%] | %-inhibition of MAP2K2 [3, 12] [%] | %-inhibition of LOK ([9]; kinase LOK, compound at 1 μM) [%] | %-inhibition of FGFR3(K650E) [10, 13] [%] | %-inhibition of skMLCK ([1]; 1 µM) [%] | %-inhibition of PAK2 ([8]; 1 µM) [%] | %-inhibition of MAP3K3 ([2]; 1 µM) [%] | %-inhibition of PHKG1 ([4]; 1 µM) [%] | %-inhibition of LOK ([9]; 1 µM) [%] | %-inhibition of PAK5 ([6]; 1 µM) [%] | %-inhibition of FGFR3(K650E) ([10]; 1 µM) [%] |
| --- | --- | --- | --- | --- | --- | --- | --- | --- | --- | --- | --- | --- | --- | --- | --- | --- | --- | --- |
| COc1cc(Nc2c(C#N)cnc3cc(OCCCN4CCN(C)CC4)c(OC)cc23)c(Cl)cc1Cl [bosutinib] | 71 | 91 | 96 | 49 | 84 | 17 | 77 | – | – | – | – | – | – | – | – | – | – | – |
| COc1cc2nccc(Oc3ccc(NC(=O)C4(C(=O)Nc5ccc(F)cc5)CC4)cc3)c2cc1OC [cabozantinib] | 12 | 9 | – | 53 | 60 | -2.51 | 91 | -5.44 | 61 | 96 | 26 | – | – | – | – | – | – | – |
| C[C@@H](Oc1cc(-c2cnn(C3CCNCC3)c2)cnc1N)c1c(Cl)ccc(F)c1Cl [crizotinib] | – | – | – | 2.74 | 9 | 7 | – | 5 | 13 | 98 | 52 | – | – | – | – | – | – | – |
| CC(C)(C)c1nc(-c2cccc(NS(=O)(=O)c3c(F)cccc3F)c2F)c(-c2ccnc(N)n2)s1 [dabrafenib] | 0.52 | 6 | – | -0.59 | 98 | 21 | 41 | – | – | – | 5 | – | – | – | – | – | – | – |
| Cc1nc(Nc2ncc(C(=O)Nc3c(C)cccc3Cl)s2)cc(N2CCN(CCO)CC2)n1 [dasatinib] | – | 88 | – | – | – | – | – | 0.254 | – | – | – | – | – | – | – | – | – | – |
| C#Cc1cccc(Nc2ncnc3cc(OCCOC)c(OCCOC)cc23)c1 [erlotinib] | – | – | 8 | – | – | – | – | – | – | – | – | 19 | 5 | 17 | 5 | 93 | -0.141 | 80 |
| CO[C@H]1C[C@@H]2CC[C@@H](C)[C@@](O)(O2)C(=O)C(=O)N2CCCC[C@H]2C(=O)O[C@H]([C@H](C)C[C@@H]2CC[C@@H](OCCO)[C@H](OC)C2)CC(=O)[C@H](C)/C=C(\C)[C@@H](O)[C@@H](OC)C(=O)[C@H](C)C[C@H](C)/C=C/C=C/C=C/1C [everolimus] | -8 | 3.6 | – | 0.522 | -7 | -1.87 | 2.25 | -8 | 11 | -9 | -4.55 | – | – | – | – | – | – | – |
| Cc1ccc(Nc2nccc(N(C)c3ccc4c(C)n(C)nc4c3)n2)cc1S(N)(=O)=O [pazopanib] | – | 77 | – | 1.52 | 12 | 2 | – | 3.51 | 1.87 | 70 | – | – | – | – | – | – | – | – |
| Cc1ccc(C(=O)Nc2ccc(CN3CCN(C)CC3)c(C(F)(F)F)c2)cc1C#Cc1cnc2cccnn12 [ponatinib] | 36 | 88 | – | 5 | – | -0.481 | 99 | – | – | – | 101 | – | – | – | – | – | – | – |
| CCN(CC)CCNC(=O)c1c(C)[nH]c(/C=C2\C(=O)Nc3ccc(F)cc32)c1C [sunitinib] | 91 | 76 | – | 95 | – | 35 | – | – | – | 92 | 96 | – | – | – | – | – | – | – |
| CC(=O)Nc1cccc(-n2c(=O)n(C3CC3)c(=O)c3c(Nc4ccc(I)cc4F)n(C)c(=O)c(C)c32)c1 [trametinib] | -3.34 | -6.63 | – | -2.24 | -2.83 | -2.62 | 20 | -9 | – | 12 | -1.07 | – | – | – | – | – | – | – |
| COc1cc2c(Nc3ccc(Br)cc3F)ncnc2cc1OCC1CCN(C)CC1 [vandetanib] | 13 | 9 | – | 68 | 68 | -3.26 | 90 | -2 | – | 92 | – | – | – | – | – | – | – | – |
